Measurements as given in patent US10450322B2, “Low molecular weight derivatives of carboxamide halogenated porphyrins, namely chlorins and bacteriochlorins, and their applications thereof” (LUZITIN, S.A., priority 2015, dated 2019).

Assays:
[1] = Photobleaching (photodecomposition quantum yield); assay type: physicochemical; settings: methanol:PBS (3:2)
CT26 subcutaneous tumors = assay: In vivo antitumor PDT of CT26 subcutaneous tumors in BALB/c mice; settings: 15 min drug-to-light interval
[2] = Singlet oxygen quantum yield (phosphorescence at 1270 nm); assay type: physicochemical; settings: in ethanol
Source text: The experiments were run at room temperature using the Nd-YAG laser Spectra-Physics Quanta-Ray GRC-130. The solutions were excited at 355 nm and the phosphorescence of singlet oxygen collected at 1270 nm in a Hamamatsu R5509-42 photomultiplier, cooled to 193 K in a liquid nitrogen chamber, after selection of the wavelength with a monochromator with 600 lines grading. Phenalenone was used as a reference of singlet oxygen generator. A Newport filter model 10LWF-1000-B was used in the emission to avoid scattering and fluorescence.
This is indicative of negligible aggregation between the molecules, which exist mostly as monomers at these concentrations in the solvents studied. Table 1 presents the infrared molar absorption coefficient (εmax) and wavelength maximum in ethanol of a typical carboxamide halogenated bacteriochlorin derivative of Formula (I). The same table also presents triplet lifetimes (τT) in air and N2 saturated solutions, fluorescence lifetime (τS), the quantum yields of fluorescence (ΦF), triplet state formation (ΦT), and singlet oxygen generation (ΦΔ) in ethanol, and photodegradation quantum yield (Φpd) in methanol:PBS (3:2). Triplet decays were clearly mono-exponential and in air-saturated ethanol the triplet lifetimes were in the range of 200 to 300 nanoseconds. […]

P. acnes (ATCC 6919) = assay: In vitro phototoxicity towards Propionibacterium acnes; assay type: cell-based; settings: 2 μM, 30 min incubation, irradiated with 10 J/cm^2
Experimental: Phototoxicity towards bacteria was evaluated in vitro against P. acnes (ATCC® 6919—Remel, Lenexa, Kans., USA) using light with the appropriate wavelength. P. acnes bacteria was cultured in Reinforced Clostridial Medium (Oxoid, Basingstok, UK) under anaerobic atmosphere at 37° C. Anaerobic growth conditions were obtained using an anaerobic jar with a sachet for anaerobic conditions generation (Anaerocult A, Merck, Darmstadt, Germany). P. acnes suspension was diluted with culture medium to an optical density at 620 nm of 1.3, corresponding to approximately […] CFU/ml (colony-forming units per milliliter). The diluted suspension was centrifuged at 13000 rpm for 10 minutes, and re-suspended in PBS. Test compound stock solutions were dissolved in PEG400:DMSO ([…] 400:dimethyl sulfoxide) (55:45) and were diluted to the appropriate concentrations with PBS. The incubation of the test compounds with P. acnes was performed in DB Falcon black 96-well plates with clear flat-bottom (Franklin Lakes, N.J., USA), in the absence of light, during 30 minutes. […] After the incubation period, the viability of P. acnes was evaluated. […] The phototoxicity was measured according to the description in the Materials and Methods section. […]

[3] = Skin permeation: amount of photosensitizer in pig skin after topical formulation; assay type: in vitro ADME; settings: for Concentration average: 6 experiments
Experimental: Skin permeation was evaluated using a topical formulation containing benzyl alcohol (23%), Kolliphor EL (17%), Transcutol (50%) and water (10%). The photosensitizer added to this formulation corresponded to 1.85% of the mass before its addition, and the gelling agent (Aerosil 200) added corresponded to 5% of the mass before its addition. The photosensitizer was first dissolved in Transcutol and exposed to 3 min of vortex and 5 min of ultrasounds. A mixture of benzyl alcohol and Kolliphor EL was then added. Immediately after, it was mixed in an IKA MIXER at 200 rpm for 5 min and water was added drop-by-drop for 10 min. Finally, the gelling agent, Aerosil 200, was mixed in and the microemulsion gel was obtained. Skin permeation studies were performed in pig skin using samples collected from 5 months old pigs. The hair was removed as well as the underlying fatty layer, before the permeation studies.
This example describes the permeation of carboxamide bacteriochlorin with formula IX in pig skin. The topical formulation and the animal model were described in the Materials and Methods section. The permeation was assessed both in terms of the amount of photosensitizer in the skin after designated times of contact between the topical formulation and the skin (incubation time) and in terms of the depth of the permeation in the skin.
The assessment of the amount of carboxamide bacteriochlorin with formula IX in the skin after various incubation times involved the following steps: (i) application of 0.30 ml of formulation in 1 cm^2 areas of minipig skin to make 6 independent measurements for the incubation times of 30, 60 and 120 minutes; (ii) cleaning of the surface of the skin at the end of the incubation times; (iii) cutting the skin in small pieces and maceration in 2 ml of dichloromethane with the aid of dispersing machine; (iv) extraction with 10 ml of dichloromethane in a falcon tube for six hours; (v) dilution by a factor of 5 with ethanol. The volume of 200 μl of the test solution was added in triplicate to 96 well plate and fluorescence intensity was detected using a Synergy HT microplate reader form Biotek (California, USA), with an excitation filter of 508/20 nm and emission filter of 760/35 nm, against a calibration curve. The signal of a blank obtained with the same cleaning method was subtracted from the signal of the sample and the concentration of the photosensitizer in each sample was obtained with the calibration curve. A summary of the results can be seen in Table 2.

SMILES: CNC(=O)c1c2nc(c(-c3c(F)cccc3F)c3ccc(cc4nc(c(-c5c(F)cccc5F)c5ccc1[nH]5)CC4)[nH]3)CC2 [formula IX, 5-methylcarboxamide-10,20-bis-(2,6-difluorophenyl)bacteriochlorin]
- Φpd photodecomposition quantum yield [1]: 1.5 10^−4
- cure (CT26 subcutaneous tumors; 0.15 mg/kg i.v., 40 J/cm^2): 100%
- tolerability of PDT (CT26 subcutaneous tumors; 0.15 mg/kg i.v., 40 J/cm^2): very well tolerated
- tumor response (CT26 subcutaneous tumors; 0.15 mg/kg i.v., 40 J/cm^2): complete regression
- time post-PDT by which animals died of acute response to the treatment (CT26 subcutaneous tumors; 0.3 mg/kg i.v., 40 J/cm^2 at 749 nm): less than 72 h
- ΦΔ singlet oxygen quantum yield [2]: 0.38
- log CFU P. Acnes (reduction of bacterial CFU, orders of magnitude) (P. acnes (ATCC 6919)): 9 log CFU
- flux of the photosensitizer to the skin Jmax ([3]; attained in 1.5 hours, topical formulation): 4×10^−8 mol/(cm^2 h)
- Mass in the skin ([3]; incubation time 30 min): 5.41 ± 1.33 μg/cm^2
- Concentration average ([3]; incubation time 30 min): 0.909 µM
- Mass in the skin ([3]; incubation time 60 min): 19.9 ± 5.12 μg/cm^2
- Concentration average ([3]; incubation time 60 min): 3.34 µM
- Mass in the skin ([3]; incubation time 120 min): 37.2 ± 7.45 μg/cm^2
- Concentration average ([3]; incubation time 120 min): 6.26 µM
